Drawing on the NIST ThermoML archive (doi:10.1021/je700100a), this text covers mass density for 1 molecule.

The nature of the data set: mn = molality of the nth substance listed, in mol/kg. To be noted: 101 kPa, Liquid, Buoyancy - hydrostatic balance with magnetic suspension - one sinker.

± gives the expanded uncertainty stated by the source.

The mass density is mass per unit of volume. In the case of `[Cl-].[K+]` [potassium chloride] + O, the mass density (298.15 K, m1 = 0.0306) is recorded as 998.491 ± 0.41 kg/m3; the mass density (303.15 K, m1 = 0.0105) turned out to be 996.131 ± 0.41 kg/m3; the mass density (303.15 K, m1 = 0.02061) is 996.605 ± 0.41 kg/m3.
